Structures are written as SMILES.

The target of experiment [1] is CDK8/Cyclin C (Homo sapiens (Human), UniProt P49336). Kind of experiment: CDK8/Cyclin C binding assay (LanthaScreen Eu-Kinase Binding Assay). To be noted: binding assay. On the procedure: The enzyme has been purchase from Invitrogen (PV4402) as a dimer of full-length His-tagged recombinant human proteins.
Assays were performed in 384-well plates. The final read out was generated using an EnVision plate reader (Perkin-Elmer).

Experiment [2] deals with Haspin kinase (Homo sapiens (Human), UniProt Q8TF76). Kind of experiment: Haspin kinase assay (ADP-Glo). The experiment is classed as biochemical. To be noted: ATP 150 μM. The text has this: The kinase assay relies on ADP-Glo^KM biochemical kinase assay (Promega). This is a luminescent kinase assay that measures ADP formed from a kinase reaction. Then ADP is converted into ATP, which is transformed into a light signal by Ultra-Glo™ Luciferase. The luminescent signal positively correlates with kinase activity. The assay measures the intrinsic ATPase activity (in the absence of peptidic substrate as phosphate acceptor).
The enzyme was purchase from Invitrogen (PV5708) as the kinase domain of GST tagged recombinant human proteins.
Assay conditions were as indicated by the kit manufacturers with the following adaptations: • Assay buffer: 15 mM HEPES pH 7.4, 20 mM NaCl, 1 mM EGTA, 0.02% Tween 20, 10 mM MgCl2, 0.1 mg/ml BGG • Assay volume: 20 μl • Incubation time and temperature: 60 min at 30° C. • Haspin concentration: 20 nM • ATP concentration: 150 μM • Tested compound: Serial 1:3 dilutions • Final DMSO concentration in the assay: 1%
Assays were performed in 384-well plates. The final read out was generated using an EnVision plate reader (Perkin-Elmer). Luminescent relative units are normalized against the control activity included for each compound (i.e., 100% Haspin activity, without compound) and the percentage of inhibition is calculated.

Chain of Haspin kinase (Q8TF76 484-798): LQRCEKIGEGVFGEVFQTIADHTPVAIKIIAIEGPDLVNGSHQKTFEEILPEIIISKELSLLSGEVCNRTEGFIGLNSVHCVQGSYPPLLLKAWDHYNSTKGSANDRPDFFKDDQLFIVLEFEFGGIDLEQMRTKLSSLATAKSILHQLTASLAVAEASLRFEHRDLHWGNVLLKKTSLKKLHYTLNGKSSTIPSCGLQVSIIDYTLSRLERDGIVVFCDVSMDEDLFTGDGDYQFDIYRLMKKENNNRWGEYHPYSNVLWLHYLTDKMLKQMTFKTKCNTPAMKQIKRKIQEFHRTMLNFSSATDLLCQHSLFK
Chain of CDK8/Cyclin C (P49336 whole entry): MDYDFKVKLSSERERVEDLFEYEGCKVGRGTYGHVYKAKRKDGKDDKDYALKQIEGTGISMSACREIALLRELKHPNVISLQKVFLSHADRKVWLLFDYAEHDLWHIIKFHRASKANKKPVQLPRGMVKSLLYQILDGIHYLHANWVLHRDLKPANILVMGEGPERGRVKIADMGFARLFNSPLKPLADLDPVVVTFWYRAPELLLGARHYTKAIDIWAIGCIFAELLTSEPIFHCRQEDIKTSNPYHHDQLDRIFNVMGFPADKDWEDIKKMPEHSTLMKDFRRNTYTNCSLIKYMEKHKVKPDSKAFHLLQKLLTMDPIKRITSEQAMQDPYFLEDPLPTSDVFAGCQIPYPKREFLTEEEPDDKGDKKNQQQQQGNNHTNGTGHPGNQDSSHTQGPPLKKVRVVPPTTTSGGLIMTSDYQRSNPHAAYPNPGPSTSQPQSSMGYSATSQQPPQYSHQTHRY
Chain of CDK8/Cyclin C (P24863 whole entry partner): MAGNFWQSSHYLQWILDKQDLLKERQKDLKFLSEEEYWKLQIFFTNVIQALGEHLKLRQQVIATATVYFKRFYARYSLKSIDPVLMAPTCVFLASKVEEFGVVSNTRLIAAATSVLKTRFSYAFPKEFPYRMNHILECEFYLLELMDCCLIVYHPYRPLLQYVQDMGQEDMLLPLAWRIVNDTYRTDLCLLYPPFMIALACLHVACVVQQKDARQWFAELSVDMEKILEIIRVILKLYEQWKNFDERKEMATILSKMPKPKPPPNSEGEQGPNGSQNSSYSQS

With `CCn1c(C(N)=O)cc2c1-c1ccncc1O[C@H]2C1CCOCC1` (single isomer, unassigned) [Example 95], in experiment [1], the IC50 was < 1.41 nM.

For the compound `CCn1c(C(N)=O)cc2c1-c1ccncc1O[C@@H]2C1CCOCC1` (single isomer, unassigned) [Example 96], the IC50 in experiment [1] is < 1.41 nM; in experiment [2] it was 355 nM.

Take `CC1(C)Oc2cnccc2-c2[nH]c(C(=O)O)cc21` [Example 2]: the IC50 turned out to be 146 nM in experiment [1] and 306 nM in experiment [2].

Consider `CC1(C)Oc2cnccc2-c2[nH]c(C(=O)Nc3ccccc3)cc21` [Example 4], for which the IC50 worked out at 5280 nM in experiment [1] and 7550 nM in experiment [2]. In the case of `CC(C)(C)OC(=O)N1CCC(NC(=O)c2cc3c([nH]2)-c2ccncc2OC3(C)C)CC1` [Example 5], the IC50 in experiment [1] was determined as 1870 nM; in experiment [2] it was 18400 nM.

In the case of `CC(C)NC(=O)c1cc2c([nH]1)-c1ccncc1OC2(C)C` [Example 6], the IC50 in experiment [1] is 2410 nM; in experiment [2], 1780 nM. Taken in the same sequence, the figures for `COCCNC(=O)c1cc2c([nH]1)-c1ccncc1OC2(C)C` [Example 7] were 1490 nM and 1020 nM.

As for `CC1(C)Oc2cnccc2-c2[nH]c(C(=O)NCc3ccccc3)cc21` [Example 8], the IC50 in experiment [1] is 340 nM; in experiment [2] it was 305 nM. Regarding `CCN(CC)C(=O)c1cc2c([nH]1)-c1ccncc1OC2(C)C` [Example 9], the IC50 is 979 nM in experiment [1] and 2350 nM in experiment [2]. Taken in the same sequence, the figures for `CC1(C)Oc2cnccc2-c2[nH]c(C(=O)NC3CCNCC3)cc21` [Example 10] were 3520 nM and 1730 nM.

As to `CC1(C)Oc2cnccc2-c2[nH]c(C(=O)NCCc3ccccc3)cc21` [Example 11], the IC50 came out at 162 nM in experiment [1] and 418 nM in experiment [2]. On the same counts, the results for `NC(=O)c1cc2c([nH]1)-c1ccncc1OC21CCN(C2CC2)CC1` [Example 16] are 5700 nM and 4280 nM. On the same counts, the results for `O=C(O)c1cc2c([nH]1)-c1ccncc1OC21CCN(C2CC2)CC1` [Example 17] are 1530 nM and 5960 nM.

As for `O=C(O)c1cc2c([nH]1)-c1ccncc1OC21CCN(CC(F)(F)F)CC1` [Example 19], the IC50 was determined as 652 nM in experiment [1] and 2950 nM in experiment [2].

With `CC1(C)Oc2cnccc2-c2[nH]c(C(=O)N3CCOCC3)cc21` [Example 21], the half-maximal inhibitory concentration (IC50) in experiment [1] is 671 nM; in experiment [2] it was 868 nM. On the same counts, the results for `CC1(C)Oc2cnccc2-c2c1cc(C(=O)O)n2Cc1ccccc1` [Example 24] are 10000 nM and 20400 nM. On the same counts, the results for `CC(C)n1c(C(N)=O)cc2c1-c1ccncc1OC2(C)C` [Example 25] are 5870 nM and 22300 nM. Taken in the same sequence, the figures for `CC(C)n1c(C(=O)O)cc2c1-c1ccncc1OC2(C)C` [Example 26] were 5940 nM and 49000 nM. As for `COCCn1c(C(=O)O)cc2c1-c1ccncc1OC2(C)C` [Example 27], the IC50 in experiment [1] amounted to 10000 nM; in experiment [2] it was 49900 nM.

With `CC1(C)Oc2c(ccnc2Cl)-c2[nH]c(C(N)=O)cc21` [Example 36], the IC50 in experiment [1] came to 559 nM; in experiment [2], 292 nM. Turning to `CC1(C)Oc2c(ccnc2Cl)-c2[nH]c(C(=O)O)cc21` [Example 37], the IC50 in experiment [1] was 6290 nM; in experiment [2], 1650 nM.

For the compound `CC1(C)Oc2cnc(Cl)cc2-c2[nH]c(C(N)=O)cc21` [Example 38], the half-inhibitory concentration (IC50) in experiment [1] came out at 461 nM; in experiment [2] it was 6830 nM. As for `CC1(C)Oc2cncc(-c3ccccc3)c2-c2[nH]c(C(N)=O)cc21` [Example 39], the values for the IC50 in experiment [1] and in experiment [2] were 206 nM and 2330 nM, respectively. On the same counts, the results for `CC1(C)Oc2cnccc2-c2[nH]c(C(N)=O)c(-c3cccc(S(N)(=O)=O)c3)c21` [Example 40] are 269 nM and 254 nM.

Regarding `CCN1CCC2(CC1)Oc1cnccc1-c1[nH]c(C(N)=O)cc12` [Example 42], the IC50 in experiment [1] turned out to be 197 nM; in experiment [2] it was 153 nM. On the same counts, the results for `CCn1c(C(=O)O)cc2c1-c1ccncc1OC2(C)C` [Example 44] are 312 nM and 6730 nM. With `NC(=O)c1cc2c([nH]1)-c1ccncc1OC21CCN(CCC(F)(F)F)CC1` [Example 47], the figures for the IC50 in experiment [1] and in experiment [2] were 120 nM and 466 nM, respectively. On the same counts, the results for `NC(=O)c1cc2c([nH]1)-c1ccncc1OC21CCN(CCCC(F)(F)F)CC1` [Example 48] are 886 nM and 470 nM.

For the compound `CC1(C2(C)Oc3cnccc3-c3[nH]c(C(N)=O)cc32)COC1` (stereo not drawn) [Example 49], the values for the half-maximal inhibitory concentration (IC50) in experiment [1] and in experiment [2] were 315 nM and 5700 nM, respectively. As for `CC1(C)Oc2cnccc2-c2[nH]c(C(N)=O)c(-c3ccc(F)cc3)c21` [Example 50], the IC50 in experiment [1] came out at 581 nM; in experiment [2], 782 nM. On the same counts, the results for `CC1(C)Oc2cnccc2-c2[nH]c(C(N)=O)c(-c3ccccc3O)c21` [Example 64] are 112 nM and 656 nM. Taken in the same sequence, the figures for `CC1(C)Oc2cnccc2-c2[nH]c(C(N)=O)c(-c3ccccc3C(F)(F)F)c21` [Example 74] were 211 nM and 743 nM. On to `CC(=O)N1CCC2(CC1)Oc1cnccc1-c1[nH]c(C(N)=O)cc12` [Example 77], for which the IC50 in experiment [1] amounted to 7.48 nM; in experiment [2], 188 nM. On the same counts, the results for `COc1ccccc1-c1c2c(n(CCF)c1C(=O)NCCF)-c1ccncc1OC2(C)C` [Example 78] are 484 nM and 33300 nM. On the same counts, the results for `COc1cccc(-c2c(C(N)=O)[nH]c3c2C(C)(C)Oc2cnccc2-3)c1` [Example 85] are 127 nM and 260 nM.

On to `NC(=O)c1cc2c(n1CCF)-c1ccncc1OC21CCOCC1` [Example 92], for which the 50% inhibitory concentration (IC50) in experiment [1] was < 1.41 nM; in experiment [2], 25.6 nM. Taken in the same sequence, the figures for `CCn1c(C(N)=O)c(C2CC2)c2c1-c1ccncc1OC2(C)C` [Example 94] were 2.65 nM and 17.5 nM.

On to `CCn1c(C(N)=O)c(Cl)c2c1-c1ccncc1OC21CCOCC1` [Example 104], for which the values for the IC50 in experiment [1] and in experiment [2] were 2.41 nM and 8.91 nM, respectively.

With `CCn1c(C(N)=O)c(Cl)c2c1-c1ccncc1OC21CCCCC1` [Example 105], the results for the IC50 in experiment [1] and in experiment [2] were < 1.41 nM and 8.82 nM, respectively. For the compound `COC(=O)c1[nH]c2c(c1-c1ccccc1)C(C)(C)Oc1cnccc1-2` [LXIX], the IC50 in experiment [1] came out at 2000 nM. That is a single-digit micromolar value. As for `COC(=O)c1[nH]c2c(c1Br)C(C)(C)Oc1cnccc1-2` [LXVIII], the IC50 in experiment [1] is 780 nM. Compared with the last compound, the IC50 is about 2.6-fold lower. As for `COC(=O)c1[nH]c2c(c1-c1ccc(S(N)(=O)=O)cc1)C(C)(C)Oc1cnccc1-2` [LXX], the IC50 in experiment [1] is 2850 nM. Against the preceding compound, the IC50 is about 3.7-fold higher. On the same count and under the same terms, in the case of `COC(=O)c1cc2c([nH]1)-c1ccncc1OC2(C)C` [VIII] it was 677 nM.

By IC50 is commonly meant the concentration that inhibits the measured activity by half. A high value points to a need for much substance.

(Values after US10208056B2, “Condensed tricyclic compounds as protein kinase inhibitors” (FUNDACIÓN DEL SECTOR PÚBLICO ESTATAL CENTRO NACIONAL DE …, priority 2015, dated 2019).)
